# From US9017938B2, “Use of microrna-199b-5p in medical and diagnostic field” (Advanced Accelerator Applications, priority 2009, dated 2015)
# Experiments:
# Daoy cells [1] = test: Orthotopic cerebellar xenograft (BLI, PET-CT, immunohistochemistry); assay type: in vivo, nude mice; conditions: 199bSC1 clone injected into fourth ventricle, four weeks, vs control cells
# Protocol: The mice were kept in a ventilated cage (26° C.) for 1 h prior to imaging studies. Anesthesia was performed with intraperitoneal administration of a mixture of ketamine (100 mg/kg) and xylazine (10 mg/kg) (injection volume, 100 μl/10 g). PET was performed 1 h after administration of 3′-deoxy-3′-[18F]fluorothymidine ([18F]FLT), a marker of tumor proliferation (50 μL; 7.4 MBq; scan time, 18 min), in a lateral caudal vein, using an animal PET scanner (GE Healthcare eXplore Vista, FWHM 1.6 mm). High resolution CT studies (GE Healtcare eXplore Locus; spatial resolution, 45 μm) were performed within 24 h from the PET.
# Lesion volumes were calculated from PET data using in-house-developed software (based on IDL, ITT Vis Inc), by summarizing all spatially connected voxels with SUV>50% SUVmax. Lesion profiles defined with these procedures were used for ROI-based comparison between AdV5-Mock and AdV5-199b.
# Unmasking was performed in 10 mM citrate buffer, pH 6, at 97° C. for 45 min. […]
# To establish intracerebellar xenograft models, 6-to-8-week-old SCID mice were anesthetized with Tribromoethanol (Avertin®) (50 mg/kg); after this, a small skin incision (1 mm) was made and a burr hole (0.7 mm in diameter) created with a microsurgical drill (Fine Science Tools, Foster City, Calif.). […] The animals were monitored weekly by bioluminescence to evaluate tumor growth for 8 weeks.
# Daoy cells [2] = test: Proliferation assay MTS, Daoy; assay type: cell-based, human; conditions: stable 199bMC1 and 199bSC1 clones vs empty-vector clone
# Protocol: Cell proliferation was determined using the CellTiter96 AQueous Non-Radioactive Cell Proliferation Assay Kit (Promega Madison, Wis.). The cells were seeded into 96-well plates at a density of 1×10^3 cells/well in EMEM without or with FBS. After 0, 24, 48 and 72 h, MTS ([3-(4,5-dimethylthiazol-2-yl)-5-(3-carboxymethoxyphenyl)-2-(4-sulfophenyl)-2H-tetrazolium]) and PMS (phenazine methosulfate) were added to each well and after 4 h the absorbance of each well was measured at 490 nm (OD490) using Multilabel counter Victor^3 (Perkin Elmer). Each condition was performed with five wells and each experiment was repeated twice.
# Proliferation assay (MTS) was made by kit CellTiter96 AQueous Non-Radioactive Cell Proliferation Assay (Promega) for 72 h. The cell lines daoy, MDA-231T and 4t1 treated with the control SNALP and with the miR 199b-5p were transferred in 96 multiwell at the concentration of 1000 and 3000 cells (daoy, MDA-231T and 4t1, respectively) in 100 μl of complete medium. For each experimental point were done 5 replicates. After 24, 48 e 72 h in each well was added 20 μl of 5× solution. After 4 h was read the absorbance of the formazane at 490 nm by Multilabel counter Victor3 (Perkin Elmer).
# Daoy cells [3] = test: s.c. flank xenograft with bioluminescence imaging; assay type: in vivo, athymic nude/nude mice
# Protocol: Stable Daoy cell clones were generated by transfecting a luciferase-expressing vector (the firefly luciferase gene cloned in the plentiV5 vector; Invitrogen) into the stable 199bSC1 clone or into the control empty-vector clone. Then 100,000 viable 199b-Luc1 and Ctl-Luc-4 cells were mixed with a 1:1 PBS:matrigel solution (BD Biosciences, San Jose, Calif.). Six-week-old female athymic mice were anesthetised using avertin (Sigma) as a 3% solution in tert-amyl alcohol (Fisher), at a dose of 3 mg per 10 g body weight. The mice were injected s.c. with a total volume of 0.1 mL of matrigel PBS cell suspension, into each flank. The mice were imaged after the implantation of the cells, with tumor growth monitored by weekly bioluminescence acquisitions (BLI) using an MS 3D Illumina Imaging System (Xenogen Corp. Alameda, Calif.). For the acquisitions, the mice were […] with 100 μL D-luciferin (15 mg/mL stock) per 10 g body weight, and imaged for 30 s, 10 min after luciferin injection; four acquisitions per mouse were made (ventral, dorsal and each flank). To quantify the bioluminescence, the integrated fluxes of photons (photons per s) within each area of interest were determined using the Living Images Software Package 3.0 (Xenogen-Caliper). The emission data from the start of tumor growth were collected for at least 6 weeks, and then were normalized to the bioluminescence on the injection day. Calliper measurements of tumor sizes were made weekly, along the long and short axes, and estimations of their volumes were made using the formula: width2×length×0.52.
substance,measurement,setting,value
"miR-199b-5p: mature microRNA CCCAGUGUUUAGACUAUCUGUUC (SEQ ID NO:11); over-expressed from pre-miR-199b construct, e.g. stable Daoy clones 199bSC1, 199bMC1 (listed as RNA, chemistry not fully specified)",tumor growth by BLI,Daoy cells [1],considerably lower
same,proliferation rate,Daoy cells [2],markedly reduced proliferation rates
same,"tumor volumes, control flanks vs miR-199b-5p flanks",Daoy cells [3]; 199b-Luc1 vs Ctl-Luc-4 Daoy clones,significant difference in tumor volumes
same,mice with statistically significant difference in bioluminescence signal between control and miR-199b-5p sides,Daoy cells [3]; after nine weeks,four out of the five
same,tumors detectable macroscopically,"Daoy cells [3]; s.c. injection of Daoy cells over-expressing miR-199b-5p, nine weeks (control cells 5/5)",3/5
